Reference: US20140370129A1, “DOSING REGIMEN AND METHOD FOR TREATING CANCER USING A COIX SEED OIL EMULSION” (Zhejiang Kanglaite Group Co., Ltd., priority 2013, published 2014)

What was measured:
[1] = tested on: advanced or metastatic adenocarcinoma of the pancreas; details: first-line therapy; P=0.003; cited from earlier work
[2] = tested on: locally advanced or metastatic pancreatic cancer; assay: Phase 2b study of Kanglaite Injection plus gemcitabine vs gemcitabine alone; assay type: in vivo
Excerpt: Efficacy of the treatment may be monitored, for example, by CT scans of the patients to determine growth or progression of the tumor, or Karnofsky performance. The Karnofsky Performance Scale Index allows patients to be classified on a scale of 0 to 100 as to their functional impairment, with zero indicating death and 100 indicating no patient complaints and no evidence of disease. The primary efficacy outcome measure for the efficacy trial described in Example 2 was Progression Free Survival (PFS). PFS includes patient deaths and assumes that death is related to progression of cancer, a reasonable assumption with pancreatic cancer. PFS is defined as the time interval from randomization to objective tumor progression or death.
As shown in Example 2, efficacy of the treatment was evaluated in part using RECIST 1.1 RECIST refers to the Response Evaluation Criteria for Solid Tumors assessment tool an involves measuring tumors (lesions) in patient using, for example, CT or MRI. As noted above, RECIST Version 1.1 was utilized in evaluating patient responses.
A phase 2b, multi-center, randomized, open-label clinical trial compared the effect of gemcitabine in combination with KLTi to gemcitabine alone in patients with locally advanced or metastatic pancreatic cancer, not amenable to curative surgical resection.
A total of 41 patients were randomized to Cohort 1 with 38 included in the safety population, specifying all patients who received at least one dose of study drug. Thirty-seven of the 38 patients had been diagnosed as having Stage IV pancreatic cancer. Twenty-six patients were assigned to Group 1 to receive both KLTi and gemcitabine while 12 patients were assigned to Group 2 to receive only gemcitabine.
All patients received marketed gemcitabine, which was administered at 1000 mg/m^2 over a minimum of 30 min and a maximum of 38 min once weekly for 3 weeks, followed by a rest period of 13 days before the next gemcitabine dose. Based on a chemotherapy cycle of 28 days (4 weeks), gemcitabine was given on Days 1, 8, and 15 of the 28-day cycle. For patients in Group 1, KLTi infusion was administered on each of Days 1-5 for each of those same 3 weeks (i.e., Days 1-5, Days 8-12 and Days 15-19). Patients were then rested for the remaining 9 days of the cycle (Days 20-28).
Dosing of Group 1 patients included administration of KLTi at a dose of 30 g/day provided as a 300 mL volume. For the first 2 KLTi infusions for each patient, the infusion rate was started at 1.0 mL/min for the first 15 min, and then increased to 150 mL/hr until the KLTi was completely infused if no safety issues were apparent. Once safety was established in the first 2 infusions, all subsequent KLTi infusions were given at a target rate of 150 m L/hr. Beginning with cycle 2, the target rate of infusion may, however, have been increased to […]. The total infusion time for 300 mL of KLTi was therefore expected to be approximately 2 hr for Cycle 1 and approximately 90 min for all remaining cycles.
Progression Free Survival (PFS) was calculated from the date of randomization to the date of objective disease progression or death. Patients without objective disease progression or death were censored at their last evaluable tumor assessment. […] This significant increase in PFS in Group 1 as compared to Group 2 is indicative of the significant advantage of administering KLTi in combination to gemcidabine as compared to administering gemcidabine alone to treat pancreatic cancer.

[3] = tested on: advanced or metastatic pancreatic carcinomas; details: erlotinib versus placebo, with gemcitabine; cited from earlier work
[4] = tested on: metastatic pancreatic adenocarcinoma; details: not previously treated with chemotherapy; cited from earlier work
[5] = tested on: pancreatic cancer; details: human, in vivo; cited from earlier work
[6] = RECIST 1.1, Efficacy Evaluable Population, n (%)
[7] = RECIST 1.1, Intent To Treat Population, n (%)

SMILES | 1-year survival [1] [%] | PFS Rate 1 month ([2]; 1 month) [%] | PFS Rate 1 year ([2]; 1 year) [%] | PFS Rate 3 months ([2]; 3 months) [%] | PFS Rate 4 months ([2]; 4 months) [%] | PFS Rate 6 months ([2]; 6 months) [%] | Median PFS ([2]; Progression Free Survival, randomization to objective progression or death, KLTi 30 g/day IV Days 1-5, 8-12, 15-19 with gemcitabine 1000 mg/m^2 Days 1, 8, 15 of 28-day cycle) [days] | CR + PR (%) [2, 6] | Complete Response (CR) [2, 6] | Partial Response (PR) [2, 6] | Progressive Disease (PD) [2, 6] | Complete Response (CR) [2, 7] | Partial Response (PR) [2, 7] | Progressive Disease (PD) [2, 7] | 1-year survival rate [3] [%] | median survival [3] [months] | median overall survival [4] [months] | alive at the end of the first year [5] [%]
O=c1[nH]cc(F)c(=O)[nH]1 [5-FU, fluorouracil] | 2 |  |  |  |  |  |  |  |  |  |  |  |  |  |  |  |  | 
Nc1ccn([C@@H]2O[C@H](CO)[C@@H](O)C2(F)F)c(=O)n1 [Gemcidabine, gemcitabine] | 18 | 75 | 8.3 | 25 | 25 | 8.3 | 57.5 | 1 (11.1%) | 0 (0%) | 1 (11.1%) | 6 (66.7%) | 0 (0%) | 1 (7.7%) | 6 (46.2%) | 17 | 5.9 | 6.8 | 22
